Target: T1, Itk (Homo sapiens, UniProt Q08881)
T1 sequence (Q08881 1-620): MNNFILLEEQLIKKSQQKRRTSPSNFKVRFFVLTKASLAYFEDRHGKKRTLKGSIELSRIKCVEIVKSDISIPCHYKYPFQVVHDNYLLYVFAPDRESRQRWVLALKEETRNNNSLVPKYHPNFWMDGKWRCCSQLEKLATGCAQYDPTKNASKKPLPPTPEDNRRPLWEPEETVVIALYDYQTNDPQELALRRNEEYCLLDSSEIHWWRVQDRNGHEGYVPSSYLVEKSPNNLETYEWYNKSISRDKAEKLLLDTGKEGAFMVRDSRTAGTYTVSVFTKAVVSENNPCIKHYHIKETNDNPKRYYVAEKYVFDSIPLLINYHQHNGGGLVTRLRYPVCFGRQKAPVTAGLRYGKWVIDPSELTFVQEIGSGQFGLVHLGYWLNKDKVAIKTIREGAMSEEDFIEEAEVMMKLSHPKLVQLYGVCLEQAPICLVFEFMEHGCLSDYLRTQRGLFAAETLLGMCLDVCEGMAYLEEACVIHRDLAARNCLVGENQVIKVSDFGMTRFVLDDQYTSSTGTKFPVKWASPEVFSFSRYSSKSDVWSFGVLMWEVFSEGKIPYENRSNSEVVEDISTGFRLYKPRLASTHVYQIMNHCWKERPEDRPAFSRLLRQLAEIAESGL
Assay: Itk inhibition assay: spectrophotometric coupled enzyme (Method C)
Assay type: biochemical
Conditions: 100 μM ATP, read-out: Ki in the standard coupled enzyme assay (Method C)
Experimental: The compounds of the present invention were evaluated as inhibitors of human Itk kinase using either a radioactivity-based, spectrophotometric or alphascreen assay.
Compounds were screened for their ability to inhibit Itk using a standard coupled enzyme assay (Fox et al., Protein Sci., (1998) 7, 2249).
Assays were carried out in a mixture of 20 mM MOPS (pH 7.0), 10 mM MgCl2, 0.1% BSA, 1 mM DTT, 2.5 mM phosphoenolpyruvate, 300 μM NADH, 30 μg/ml pyruvate kinase and 10 μg/ml lactate dehydrogenase. Final substrate concentrations in the assay were 100 μM ATP (Sigma Chemicals) and 3 μM peptide (Biotinylated SAM68 Δ332-443). Assays were carried out at 25° C. and in the presence of 10 nM Itk.
An assay stock buffer solution was prepared containing all of the reagents listed above, with the exception of ATP and the test compound of interest. 60 μl of the stock solution was placed in a 96 well plate followed by addition of 2 μl of DMSO stock containing serial dilutions of the test compound (typically starting from a final concentration of 15 μM). The plate was preincubated for 10 minutes at 25° C. and the reaction initiated by addition of 5 μl of ATP. Initial reaction rates were determined with a Molecular Devices SpectraMax Plus plate reader over a 10 minute time course. IC50 and Ki data were calculated from non-linear regression analysis using the Prism software package (GraphPad Prism version 3.0cx for Macintosh, GraphPad Software, San Diego Calif., USA).

| SMILES | Ki |
| --- | --- |
| CS(=O)(=O)c1cccc(Nc2ncc3ccc4sc(C(=O)NCCO)cc4c3n2)c1 [Compound V-133] | < 1 µM |
| CC(C)(C)c1cccc(Nc2ncc3ccc4sc(C(=O)N5CCNCC5)cc4c3n2)c1 [Compound V-79] | < 1 µM |
| CS(=O)(=O)c1cccc(Nc2ncc3ccc4sc(C(=O)N5CCC[C@H]5CO)cc4c3n2)c1 [Compound V-142] | < 1 µM |
| O=C(c1cc2c(ccc3cnc(NCCc4cccnc4)nc32)s1)N1CCNCC1 [Compound V-173] | < 1 µM |
| O=C(c1cc2c(ccc3cnc(Nc4cccc(-c5cccnc5)c4)nc32)s1)N1CCNCC1 [Compound V-94] | < 1 µM |
| NC1CCN(C(=O)c2cc3c(ccc4cnc(Nc5cccc(F)c5)nc43)s2)C1 (stereo not shown) [Compound V-74] | < 1 µM |
| NC1CCN(C(=O)c2cc3c(ccc4cnc(Nc5cccc(Cc6ccccc6)c5)nc43)s2)C1 (stereo not shown) [Compound V-88] | < 1 µM |
| CS(=O)(=O)c1cccc(Nc2ncc3ccc4sc(C(=O)NC5CCC(O)CC5)cc4c3n2)c1 (stereo not shown) [Compound V-151] | < 1 µM |
| NC1CCN(C(=O)c2cc3c(ccc4cnc(Nc5cccc(-c6ccccc6)c5)nc43)s2)C1 (stereo not shown) [Compound V-73] | < 1 µM |
| O=C(c1cc2c(ccc3cnc(NCCCc4ccccc4)nc32)s1)N1CCNCC1 [Compound V-170] | < 1 µM |
| Cc1cccc(C)c1-c1cccc(Nc2ncc3ccc4sc(C(=O)N5CCNCC5)cc4c3n2)c1 [Compound V-92] | < 1 µM |
| CC(=O)N1CCc2ccc(Nc3ncc4ccc5sc(C(=O)N6CCNCC6)cc5c4n3)cc21 [Compound V-166] | < 1 µM |
| CC(C)N(C)C(=O)c1cc2c(ccc3cnc(Nc4cccc(S(C)(=O)=O)c4)nc32)s1 [Compound V-140] | < 1 µM |
| O=C(c1cc2c(ccc3cnc(Nc4cccnc4)nc32)s1)N1CCNCC1 [Compound V-117] | < 1 µM |
| CC(=O)N1CCCN(C(=O)c2cc3c(ccc4cnc(Nc5cccc(C(C)(C)C)c5)nc43)s2)CC1 [Compound V-106] | < 1 µM |
| CC(C)c1cccc(Nc2ncc3ccc4sc(C(=O)N5CCC(N)C5)cc4c3n2)c1 (stereo not shown) [Compound V-82] | < 1 µM |
| CC(C)c1cccc(Nc2ncc3ccc4sc(C(=O)N5CCNCC5)cc4c3n2)c1 [Compound V-81] | < 1 µM |
| CN1CCN(C(=O)c2ccc(Nc3ncc4ccc5sc(C(=O)N6CCNCC6)cc5c4n3)cc2)CC1 [Compound V-122] | < 1 µM |
| CN(C)C(=O)c1cc2c(ccc3cnc(Nc4cccc(C(C)(C)C)c4)nc32)s1 [Compound V-104] | < 1 µM |
| COc1ccccc1-c1cccc(Nc2ncc3ccc4sc(C(=O)N5CCNCC5)cc4c3n2)c1 [Compound V-91] | < 1 µM |
| CN1CCN(CCC(=O)Nc2cccc(Nc3ncc4ccc5sc(C(=O)N6CCOCC6)cc5c4n3)c2)CC1 [Compound V-70] | < 1 µM |
| O=C(c1cc2c(ccc3cnc(Nc4ccncc4)nc32)s1)N1CCNCC1 [Compound V-116] | < 1 µM |
| CN(C)CCC(=O)Nc1cccc(Nc2ncc3ccc4sc(C(=O)N5CCOCC5)cc4c3n2)c1 [Compound V-71] | < 1 µM |
| O=C(c1cc2c(ccc3cnc(N[C@H]4C[C@@H]4c4ccccc4)nc32)s1)N1CCNCC1 [Compound V-127] | < 1 µM |

Continued, values first:

| Ki | SMILES |
| --- | --- |
| < 1 µM | CC(C)(C)c1cccc(Nc2ncc3ccc4sc(C(=O)N5CCCNCC5)cc4c3n2)c1 [Compound V-109] |
| < 1 µM | O=C(c1cc2c(ccc3cnc(Nc4cccc(Oc5ccccc5)c4)nc32)s1)N1CCNCC1 [Compound V-84] |
| < 1 µM | CS(=O)(=O)c1cccc(Nc2ncc3ccc4sc(C(=O)N5CCC(O)CC5)cc4c3n2)c1 [Compound V-154] |
| < 1 µM | CN(C)C(=O)c1cc2c(ccc3cnc(Nc4cccc(S(C)(=O)=O)c4)nc32)s1 [Compound V-141] |
| < 1 µM | O=C(c1cc2c(ccc3cnc(Nc4ccc(N5CCNCC5)cc4)nc32)s1)N1CCNCC1 [Compound V-115] |
| < 1 µM | CN(C)C(=O)c1ccc(Nc2ncc3ccc4sc(C(=O)N5CCNCC5)cc4c3n2)cc1 [Compound V-121] |
| < 1 µM | O=C(c1cc2c(ccc3cnc(NCCc4cccc(Cl)c4)nc32)s1)N1CCNCC1 [Compound V-167] |
| < 1 µM | O=C(c1cc2c(ccc3cnc(NCCc4ccc(Cl)cc4)nc32)s1)N1CCNCC1 [Compound V-159] |
| < 1 µM | NC1CCN(C(=O)c2nc3ccc4cnc(Nc5cccc(S(N)(=O)=O)c5)nc4c3s2)CC1 [Compound V-176] |
| < 1 µM | Nc1ccc(CCNc2ncc3ccc4sc(C(=O)N5CCNCC5)cc4c3n2)cc1 [Compound V-165] |
| < 1 µM | CN(CCO)C(=O)c1cc2c(ccc3cnc(Nc4cccc(S(C)(=O)=O)c4)nc32)s1 [Compound V-152] |
| < 1 µM | O=C(c1cc2c(ccc3cnc(Nc4cccc(N5CCNCC5)c4)nc32)s1)N1CCNCC1 [Compound V-113] |
| < 1 µM | O=C(c1cc2c(ccc3cnc(NCCc4ccccc4Cl)nc32)s1)N1CCNCC1 [Compound V-162] |
| < 1 µM | C[C@@H]1CN(C(=O)c2cc3c(ccc4cnc(Nc5cccc(S(C)(=O)=O)c5)nc43)s2)C[C@H](C)O1 [Compound V-143] |
| < 1 µM | CS(=O)(=O)c1cccc(Nc2ncc3ccc4sc(C(=O)N5CCNCC5)cc4c3n2)c1 [Compound V-100] |
| < 1 µM | CS(=O)(=O)c1cccc(Nc2ncc3ccc4sc(C(=O)NCC5CCNCC5)cc4c3n2)c1 [Compound V-149] |

| Ki | SMILES |
| --- | --- |
| < 1 µM | CC(=O)N1CCN(C(=O)c2cc3c(ccc4cnc(Nc5cccc(C(C)(C)C)c5)nc43)s2)CC1 [Compound V-105] |
| < 1 µM | O=C(c1cc2c(ccc3cnc(Nc4ccc(N5CCOCC5)cc4)nc32)s1)N1CCNCC1 [Compound V-98] |
| < 1 µM | CC1CC(C)CN(CCC(=O)Nc2cccc(Nc3ncc4ccc5sc(C(=O)N6CCOCC6)cc5c4n3)c2)C1 (stereo not shown) [Compound V-78] |
| < 1 µM | COc1ccc(CCNc2ncc3ccc4sc(C(=O)N5CCNCC5)cc4c3n2)cc1 [Compound V-175] |
| < 1 µM | CN1CCN(C(=O)c2cc3c(ccc4cnc(Nc5cccc(Oc6ccccc6)c5)nc43)s2)CC1 [Compound V-83] |
| < 1 µM | O=C(c1cc2c(ccc3cnc(NCCc4ccccn4)nc32)s1)N1CCNCC1 [Compound V-179] |
| < 1 µM | CS(=O)(=O)c1cccc(Nc2ncc3ccc4sc(C(=O)NC5CCOCC5)cc4c3n2)c1 [Compound V-150] |
| < 1 µM | CC(=O)NC1CCN(C(=O)c2cc3c(ccc4cnc(Nc5cccc(S(C)(=O)=O)c5)nc43)s2)C1 (stereo not shown) [Compound V-148] |
| < 1 µM | CS(=O)(=O)c1cccc(Nc2ncc3ccc4sc(C(=O)N5CCNC(=O)C5)cc4c3n2)c1 [Compound V-131] |
| < 1 µM | COCCCNCCC(=O)Nc1cccc(Nc2ncc3ccc4sc(C(=O)N5CCOCC5)cc4c3n2)c1 [Compound V-77] |
| < 1 µM | CC(C)(C)c1cccc(Nc2ncc3ccc4sc(C(=O)NCC5CCNC5)cc4c3n2)c1 (stereo not shown) [Compound V-108] |
| < 1 µM | O=C(c1cc2c(ccc3cnc(NC4Cc5ccccc5C4)nc32)s1)N1CCNCC1 [Compound V-172] |
| < 1 µM | O=C(c1cc2c(ccc3cnc(Nc4cccc(N5CCOCC5)c4)nc32)s1)N1CCNCC1 [Compound V-112] |
| < 1 µM | CC(=O)N1CCC(CNC(=O)c2cc3c(ccc4cnc(Nc5cccc(C(C)(C)C)c5)nc43)s2)C1 (stereo not shown) [Compound V-119] |
| < 1 µM | O=C(CCN1CCCCC1)Nc1cccc(Nc2ncc3ccc4sc(C(=O)N5CCOCC5)cc4c3n2)c1 [Compound V-67] |

— US7700609B2, “Compositions useful as inhibitors of protein kinases” (Vertex Pharmaceuticals Incorporated, priority 2003, dated 2010)
